Measured values: US20140187548A1, “6 SUBSTITUTED IMIDAZOPYRAZINES FOR USE AS MPS-1 AND TKK INHIBITORS IN THE TREATMENT OF HYPERPROLIFERATIVE DISORDERS” (BAYER INTELLECTUAL PROPERTY GMBH, priority 2010, published 2014)

Each compound was assayed against T1, human kinase Mps-1 (Homo sapiens, UniProt P33981) (assay: Mps-1 kinase assay (TR-FRET)). Details: N-terminally GST-tagged human full length recombinant Mps-1; 10 μM ATP; 1 μM peptide substrate; 15 min pre-incubation; 60 min at 22° C.
T1 construct: N-terminally GST-tagged human full length recombinant Mps-1 kinase; GST (N); purchased Invitrogen, Karslruhe, Germany PV4071
T1 sequence (P33981 1-857): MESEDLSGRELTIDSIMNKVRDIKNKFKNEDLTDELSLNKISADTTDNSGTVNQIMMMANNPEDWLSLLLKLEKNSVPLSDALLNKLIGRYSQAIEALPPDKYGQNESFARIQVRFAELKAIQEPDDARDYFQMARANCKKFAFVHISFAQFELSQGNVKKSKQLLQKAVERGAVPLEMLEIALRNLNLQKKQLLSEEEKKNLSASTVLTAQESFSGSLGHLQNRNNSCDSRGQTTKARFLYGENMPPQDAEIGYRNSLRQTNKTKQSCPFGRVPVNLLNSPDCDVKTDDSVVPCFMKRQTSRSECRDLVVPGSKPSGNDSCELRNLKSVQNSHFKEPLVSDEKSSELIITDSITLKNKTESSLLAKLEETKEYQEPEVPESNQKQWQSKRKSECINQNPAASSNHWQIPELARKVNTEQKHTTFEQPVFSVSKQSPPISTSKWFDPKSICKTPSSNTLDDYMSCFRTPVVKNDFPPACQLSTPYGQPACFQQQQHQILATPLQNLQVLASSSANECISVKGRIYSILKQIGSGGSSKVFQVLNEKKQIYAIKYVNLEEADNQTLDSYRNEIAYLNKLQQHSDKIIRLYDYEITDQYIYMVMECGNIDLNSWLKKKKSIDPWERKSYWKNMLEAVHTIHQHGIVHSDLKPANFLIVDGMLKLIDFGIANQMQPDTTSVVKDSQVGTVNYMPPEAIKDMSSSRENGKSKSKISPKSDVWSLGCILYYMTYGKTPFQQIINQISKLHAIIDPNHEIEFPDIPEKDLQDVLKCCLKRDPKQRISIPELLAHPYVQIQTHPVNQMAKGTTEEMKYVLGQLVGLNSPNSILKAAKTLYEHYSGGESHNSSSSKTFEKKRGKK
Assay type: biochemical
Procedure: The human kinase Mps-1 phosphorylates a biotinylated substrate peptide. Detection of the phosphorylated product is achieved by time-resolved fluorescence resonance energy transfer (TR-FRET) from Europium-labelled anti-phospho-Serine/Threonine antibody as donor to streptavidin labelled with cross-linked allophycocyanin (SA-XLent) as acceptor. Compounds are tested for their inhibition of the kinase activity.
N-terminally GST-tagged human full length recombinant Mps-1 kinase (purchased from Invitrogen, Karslruhe, Germany, cat. no PV4071) was used. As substrate for the kinase reaction a biotinylated peptide of the amino-acid sequence […] (C-terminus in amide form, purchased from Biosynthan GmbH, Berlin) was used.
The concentration of Mps-1 in the assay was adjusted to the activity of the enzyme lot and was chosen appropriate to have the assay in the linear range, typical enzyme concentrations were in the range of about 1 nM (final conc. in the 5 μl assay volume).
The resulting mixture was incubated 1 h at 22° C. to allow the binding of the phosphorylated peptide to the anti-phospho(Ser/Thr)-Europium-antibody. Subsequently the amount of phosphorylated substrate was evaluated by measurement of the resonance energy transfer from the Europium-labelled anti-phospho(Ser/Thr) antibody to the Streptavidin-XLent. Therefore, the fluorescence emissions at 620 nm and 665 nm after excitation at 350 nm was measured in a Viewlux TR-FRET reader (PerkinElmer LAS, Rodgau-Jügesheim, Germany). The “blank-corrected normalized ratio” (a Viewlux specific readout, similar to the traditional ratio of the emissions at 665 nm and at 622 nm, in which blank and Eu-donor crosstalk are subtracted from the 665 nm signal before the ratio is calculated) was taken as the measure for the amount of phosphorylated substrate.
Compound `O=C(NC1CC1)c1ccc(-c2cnc3c(NCC4CCC(C(F)(F)F)CC4)nc(-c4ccccc4)cn23)cc1` (mixture of isomers) [Example 2-86, N-cyclopropyl-4-[6-phenyl-8-([[4-(trifluoromethyl)cyclohexyl]methyl]amino)imidazo[1,2-a]pyrazin-3-yl]benzamide] has an IC50 of 12.4 nM.
Compound `CC(C)CNc1nc(-c2ccc(C(C)O)cc2)cn2c(-c3ccc(C(=O)NC4CC4)cc3)cnc12` (racemic) [Example 6-2, (RS)N-cyclopropyl-4-{6-[4-(1-hydroxyethyl)phenyl]-8-(isobutylamino)imidazo[1,2-a]pyrazin-3-yl}benzamide] has an IC50 of 1.1 nM.
`CC(C)CNc1nc(-c2cccc([N+](=O)[O-])c2)cn2c(-c3ccc(C(=O)NC4CC4)cc3)cnc12` [Example 1-2, N-cyclopropyl-4-{8-[(2-methylpropyl)amino]-6-(3-nitrophenyl)imidazo [1,2-a]pyrazin-3-yl} benzamide] gave an IC50 of 5.5 nM.
In the case of `CC(C)CNc1nc(-c2ccc3c(c2)OCCO3)cn2c(-c3ccc(C(=O)NC4CC4)cc3)cnc12` [Example 1-3, N-cyclopropyl-4-{6-(2,3-dihydro-1,4-benzodioxin-6-yl)-8-[(2-methyl-propyl)amino]imidazo [1,2-a]pyrazin-3-yl} benzamide], the IC50 is reported as 18.4 nM.
For `CC(C)CNc1nc(-c2cccc3ccccc23)cn2c(-c3ccc(C(=O)NC4CC4)cc3)cnc12` [Example 1-4, N-cyclopropyl-4-{8-[(2-methylpropyl)amino]-6-(naphthalen-1-yl)imidazo[1,2-a]pyrazin-3-yl}benzamide], the IC50 was 4.6 nM.
`CC(C)CNc1nc(-c2cccc(CO)c2)cn2c(-c3ccc(C(=O)NC4CC4)cc3)cnc12` [Example 1-5, N-cyclopropyl-4-{6-[3-(hydroxymethyl)phenyl]-8-[(2-methylpropyl)amino]imidazo[1,2-a]pyrazin-3-yl}benzamide] was tested, and the IC50 was 1.4 nM.
With `CC(C)CNc1nc(-c2ccc(F)cc2)cn2c(-c3ccc(C(=O)NC4CC4)cc3)cnc12` [Example 1-6, N-cyclopropyl-4-{6-(4-fluorophenyl)-8-[(2-methylpropyl)amino]imidazo[1,2-a]pyrazin-3-yl}benzamide] the IC50 was 2.3 nM.
With `Cc1ccc(-c2cn3c(-c4ccc(C(=O)NC5CC5)cc4)cnc3c(NCC(C)C)n2)cc1` [Example 1-7, N-cyclopropyl-4-{6-(4-methylphenyl)-8-[(2-methylpropyl)amino]imidazo[1,2-a]pyrazin-3-yl}benzamide] the IC50 was 5.7 nM.
Compound `Cc1cccc(-c2cn3c(-c4ccc(C(=O)NC5CC5)cc4)cnc3c(NCC(C)C)n2)c1` [Example 1-8, N-cyclopropyl-4-{6-(3-methylphenyl)-8-[(2-methylpropyl)amino]imidazo[1,2-a]pyrazin-3-yl}benzamide] has an IC50 of 4.9 nM.
Compound `Cc1cccc(-c2cn3c(-c4ccc(C(=O)NC5CC5)cc4)cnc3c(NCC(C)C)n2)c1C` [Example 1-9, N-cyclopropyl-4-{6-(2,3-dimethylphenyl)-8-[(2-methylpropyl)amino]imidazo[1,2-a]pyrazin-3-yl}benzamide] has an IC50 of 2.4 nM.
Work on `CC(C)CNc1nc(-c2cc(Cl)cc(Cl)c2)cn2c(-c3ccc(C(=O)NC4CC4)cc3)cnc12` [Example 1-10, N-cyclopropyl-4-{6-(3,5-dichlorophenyl)-8-[(2-methylpropyl)amino]imidazo[1,2-a]pyrazin-3-yl}benzamide] yielded an IC50 of 1110 nM.
`COC(=O)c1cccc(-c2cn3c(-c4ccc(C(=O)NC5CC5)cc4)cnc3c(NCC(C)C)n2)c1` [Example 1-11, methyl 3-{3-[4-(cyclopropyl-carbamoyl)phenyl]-8-[(2-methylpropyl)amino]imidazo[1,2-a]pyrazin-6-yl}benzoate] was tested, and the IC50 was 2.3 nM.
In the case of `Cc1cc(-c2cn3c(-c4ccc(C(=O)NC5CC5)cc4)cnc3c(NCC(C)C)n2)cc(C)c1O` [Example 1-12, N-cyclopropyl-4-{6-(4-hydroxy-3,5-dimethyl-phenyl)-8-[(2-methyl-propyl)amino]imidazo [1,2-a]pyrazin-3-yl} benzamide], the IC50 is reported as 3.8 nM.
Work on `COc1cccc(-c2cn3c(-c4ccc(C(=O)NC5CC5)cc4)cnc3c(NCC(C)C)n2)c1F` [Example 1-13, N-cyclopropyl-4-{6-(2-fluoro-3-methoxyphenyl)-8-[(2-methylpropyl)amino]imidazo[1,2-a]pyrazin-3-yl}benzamide] yielded an IC50 of 7 nM.
`CC(=O)Nc1ccccc1-c1cn2c(-c3ccc(C(=O)NC4CC4)cc3)cnc2c(NCC(C)C)n1` [Example 1-14, 4-{6-[2-(acetylamino)phenyl]-8-[(2-methyl-propyl)amino]imidazo [1,2-a]pyrazin-3-yl}-N-cyclopropylbenzamide] was tested, and the IC50 was 11.2 nM.
With `CC(C)CNc1nc(-c2cccc(NS(C)(=O)=O)c2)cn2c(-c3ccc(C(=O)NC4CC4)cc3)cnc12` [Example 1-15, N-cyclopropyl-4-(8-[(2-methylpropyl)amino]-6-{3-[(methylsulfonyl)amino]phenyl}imidazo [1,2-a]pyrazin-3-yl) benzamide] the IC50 was 1.8 nM.
`CC(C)CNc1nc(-c2ccc(C(=O)N(C)C)cc2)cn2c(-c3ccc(C(=O)NC4CC4)cc3)cnc12` [Example 1-16, 4-{3-[4-(cyclopropyl-carbamoyl)phenyl]-8-[(2-methylpropyl)amino]imidazo[1,2-a]pyrazin-6-yl}-N,N-dimethyl-benzamide] gave an IC50 of 2.7 nM.
Compound `COc1cccc(-c2cn3c(-c4ccc(C(=O)NC5CC5)cc4)cnc3c(NCC(C)C)n2)c1OC` [Example 1-17, N-cyclopropyl-4-{6-(2,3-dimethoxyphenyl)-8-[(2-methylpropyl)amino]imidazo[1,2-a]pyrazin-3-yl}benzamide] has an IC50 of 14.4 nM.
`CSc1ccc(-c2cn3c(-c4ccc(C(=O)NC5CC5)cc4)cnc3c(NCC(C)C)n2)cc1` [Example 1-18, N-cyclopropyl-4-{8-[(2-methylpropyl)amino]-6-[4-(methylsulfanyl)phenyl]imidazo[1,2-a]pyrazin-3-yl}benzamide] gave an IC50 of 8.5 nM.
With `Cc1ccccc1-c1cn2c(-c3ccc(C(=O)NC4CC4)cc3)cnc2c(NCC(C)C)n1` [Example 1-19, N-cyclopropyl-4-{6-(2-methylphenyl)-8-[(2-methylpropyl)amino]imidazo[1,2-a]pyrazin-3-yl}benzamide] the IC50 was 1.5 nM.
In the case of `CC(C)CNc1nc(-c2cccc3ncccc23)cn2c(-c3ccc(C(=O)NC4CC4)cc3)cnc12` [Example 1-20, N-cyclopropyl-4-{8-[(2-methylpropyl)amino]-6-(quinolin-5-yl)imidazo [1,2-a]pyrazin-3-yl} benzamide], the IC50 is reported as 1 nM.
Work on `COc1cc(OC)cc(-c2cn3c(-c4ccc(C(=O)NC5CC5)cc4)cnc3c(NCC(C)C)n2)c1` [Example 1-21, N-cyclopropyl-4-{6-(3,5-dimethoxyphenyl)-8-[(2-methylpropyl)amino]imidazo[1,2-a]pyrazin-3-yl}benzamide] yielded an IC50 of 19 nM.
`CC(C)CNc1nc(-c2cccc3[nH]ccc23)cn2c(-c3ccc(C(=O)NC4CC4)cc3)cnc12` [Example 1-22, N-cyclopropyl-4-{6-(1H-indol-4-yl)-8-[(2-methyl-propyl)amino]imidazo [1,2-a]pyrazin-3-yl} benzamide] gave an IC50 of 2.6 nM.
With `CC(C)CNc1nc(-c2ccc3cc[nH]c3c2)cn2c(-c3ccc(C(=O)NC4CC4)cc3)cnc12` [Example 1-23, N-cyclopropyl-4-{6-(1H-indol-6-yl)-8-[(2-methyl-propyl)amino]imidazo [1,2-a]pyrazin-3-yl} benzamide] the IC50 was 21 nM.
Compound `CC(C)CNc1nc(-c2ccc(C(N)=O)cc2)cn2c(-c3ccc(C(=O)NC4CC4)cc3)cnc12` [Example 1-24, 4-{6-(4-carbamoylphenyl)-8-[(2-methylpropyl)amino]imidazo[1,2-a]pyrazin-3-yl}-N-cyclo-propylbenzamide] has an IC50 of 1.1 nM.
